Results as given in ChEMBL document CHEMBL5390198, “Scaffold hopping of N-benzyl-3,4,5-trimethoxyaniline: 5,6,7-Trimethoxyflavan derivatives as novel potential anticancer agents modulating hippo signaling pathway” (2023).

Experiments:
Assay type in all cases: functional
[1] = system: A549; assay: cells; details: Homo sapiens, time 24-72 hrs
Description: Antiproliferative activity against human A549 cells assessed as inhibition of cell growth at 10 uM measured after 24 to 72 hrs by SRB method relative to control

[2] = system: CCRF-CEM; assay: Antiproliferative activity against human CCRF-CEM cells assessed as inhibition of cell growth at 10 uM measured after 24 to 72 hrs by SRB method relative to control; details: time 24-72 hrs
[3] = system: RPMI-8226; assay: Antiproliferative activity against human RPMI-8226 cells assessed as inhibition of cell growth at 10 uM measured after 24 to 72 hrs by SRB method relative to control; details: time 24-72 hrs
[4] = system: NCI-H226; assay: cells; details: Homo sapiens, time 24-72 hrs
Description: Antiproliferative activity against human NCI-H226 cells assessed as inhibition of cell growth at 10 uM measured after 24 to 72 hrs by SRB method relative to control

[5] = system: HL-60; assay: Antiproliferative activity against human HL-60 cells assessed as inhibition of cell growth at 10 uM measured after 24 to 72 hrs by SRB method relative to control; details: time 24-72 hrs
[6] = system: MOLT-4; assay: Antiproliferative activity against human MOLT-4 cells assessed as inhibition of cell growth at 10 uM measured after 24 to 72 hrs by SRB method relative to control; details: time 24-72 hrs
[7] = system: NCI-H23; assay: cells; details: Homo sapiens, time 24-72 hrs
Description: Antiproliferative activity against human NCI-H23 cells assessed as inhibition of cell growth at 10 uM measured after 24 to 72 hrs by SRB method relative to control

[8] = system: NCI-H322M; assay: Antiproliferative activity against human NCI-H322M cells assessed as inhibition of cell growth at 10 uM measured after 24 to 72 hrs by SRB method relative to control; details: time 24-72 hrs
[9] = system: HOP-92; assay: cells; details: Homo sapiens, time 24-72 hrs
Description: Antiproliferative activity against human HOP-92 cells assessed as inhibition of cell growth at 10 uM measured after 24 to 72 hrs by SRB method relative to control

[10] = system: NCI-H460; assay: cells; details: Homo sapiens, time 24-72 hrs
Description: Antiproliferative activity against human NCI-H460 cells assessed as inhibition of cell growth at 10 uM measured after 24 to 72 hrs by SRB method relative to control

[11] = system: K562; assay: Antiproliferative activity against human K562 cells assessed as inhibition of cell growth at 10 uM measured after 24 to 72 hrs by SRB method relative to control; details: time 24-72 hrs
[12] = system: NCI-H522; assay: Antiproliferative activity against human NCI-H522 cells assessed as inhibition of cell growth at 10 uM measured after 24 to 72 hrs by SRB method relative to control; details: time 24-72 hrs
[13] = system: SR; assay: Antiproliferative activity against human SR cells assessed as inhibition of cell growth at 10 uM by measured after 24 to 72 hrs SRB method relative to control; details: time 24-72 hrs
[14] = system: HOP-62; assay: Antiproliferative activity against human HOP-62 cells assessed as inhibition of cell growth at 10 uM measured after 24 to 72 hrs by SRB method relative to control; details: time 24-72 hrs
[15] = system: EKVX; assay: cells; details: Homo sapiens, time 24-72 hrs
Description: Antiproliferative activity against human EKVX cells assessed as inhibition of cell growth at 10 uM measured after 24 to 72 hrs by SRB method relative to control

[16] = system: SNB-19; assay: Growth inhibition of human SNB-19 cells measured after 24 to 72 hrs by SRB method; details: time 24-72 hrs
[17] = system: SF-268; assay: Growth inhibition of human SF-268 cells measured after 24 to 72 hrs by SRB method; details: time 24-72 hrs
[18] = system: SF-295; assay: Growth inhibition of human SF-295 cells measured after 24 to 72 hrs by SRB method; details: time 24-72 hrs
[19] = system: U-251; assay: Growth inhibition of human U-251 cells measured after 24 to 72 hrs by SRB method; details: time 24-72 hrs
[20] = system: PC-3; assay: Growth inhibition of human PC-3 cells measured after 24 to 72 hrs by SRB method; details: time 24-72 hrs
[21] = system: DU-145; assay: Growth inhibition of human DU-145 cells measured after 24 to 72 hrs by SRB method; details: time 24-72 hrs
[22] = system: SK-MEL-28; assay: Growth inhibition of human SK-MEL-28 cells measured after 24 to 72 hrs by SRB method; details: time 24-72 hrs
[23] = system: MDA-MB-435; assay: Growth inhibition of human MDA-MB-435 cells measured after 24 to 72 hrs by SRB method; details: time 24-72 hrs

SMILES: COc1ccc(C(=O)Nc2cccc(C3CCc4c(cc(OC)c(OC)c4OC)O3)c2)cc1 (stereo not drawn)
- inhibition at 10 µM [1]: 56.6%
- inhibition at 10 µM [2]: > 60%
- inhibition at 10 µM [3]: > 60%
- inhibition at 10 µM [4]: 69.9%
- inhibition at 10 µM [5]: > 60%
- inhibition at 10 µM [6]: > 60%
- inhibition at 10 µM [7]: 41.1%
- inhibition at 10 µM [8]: 24.1%
- inhibition at 10 µM [9]: 38.7%
- inhibition at 10 µM [10]: 74.3%
- inhibition at 10 µM [11]: > 60%
- inhibition at 10 µM [12]: 57.3%
- inhibition at 10 µM [13]: > 60%
- inhibition at 10 µM [14]: 60.2%
- inhibition at 10 µM [15]: 45.3%

SMILES: Cn1nnc2c(C(N)=O)ncn2c1=O [TEMOZOLOMIDE]
- GI50 [16]: > 100 µM
- GI50 [17]: > 100 µM
- GI50 [18]: > 100 µM
- GI50 [19]: > 100 µM

SMILES: CNC(=O)c1ccc(N2C(=S)N(c3ccc(C#N)c(C(F)(F)F)c3)C(=O)C2(C)C)cc1F [ENZALUTAMIDE]
- GI50 [20]: 22 µM
- GI50 [21]: > 31 µM

SMILES: CN(C)/N=N/c1[nH]cnc1C(N)=O [DACARBAZINE]
- GI50 [22]: > 100 µM
- GI50 [23]: 84.3 µM
